According to paper PMC9038691, “A structural exposé of noncanonical molecular reactivity within the protein tyrosine phosphatase WPD loop” (Nature communications, 2022):

Key:
AtPFA-DSP1^49–215 = target: T1, AtPFA-DSP1^49–215 (Arabidopsis thaliana, UniProt Q9ZVN4, C150S); assay: X-ray crystal structure (soak); type: binding; settings: active site
T1 construct: core catalytic domain, residues 49-215; N-terminal 6xHis-MBP tag cut with TEV protease; E. coli; monomer in solution

AtPFA-DSP1 (full-length) = target: T2, AtPFA-DSP1 (full-length) (Arabidopsis thaliana, UniProt Q9ZVN4); assay: malachite green Pi release; type: biochemical; settings: pH 7.2, 30 °C, 100 mM KCl, 0.8 mM MgCl2
T2 construct: full-length (codon-optimized cDNA, Genscript); pDest-566, N-terminal 6xHis-MBP tag cut with TEV protease; E. coli
T2 sequence (Q9ZVN4 whole entry): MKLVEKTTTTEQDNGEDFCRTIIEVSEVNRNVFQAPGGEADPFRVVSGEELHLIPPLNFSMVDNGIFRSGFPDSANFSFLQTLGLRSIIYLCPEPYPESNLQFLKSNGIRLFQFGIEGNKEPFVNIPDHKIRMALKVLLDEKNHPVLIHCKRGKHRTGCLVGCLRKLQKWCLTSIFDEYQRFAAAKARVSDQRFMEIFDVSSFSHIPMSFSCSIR

T1 sequence (Q9ZVN4 49-215 C150S): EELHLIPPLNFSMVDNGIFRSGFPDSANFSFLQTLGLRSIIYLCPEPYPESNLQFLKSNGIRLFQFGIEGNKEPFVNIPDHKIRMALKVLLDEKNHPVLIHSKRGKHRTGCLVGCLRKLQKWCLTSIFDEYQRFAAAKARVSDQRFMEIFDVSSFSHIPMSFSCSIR

In the case of `O=P(O)(O)O[C@H]1[C@@H](OP(=O)(O)O)[C@H](OP(=O)(O)O)[C@@H](OP(=O)(O)OP(=O)(O)O)[C@H](OP(=O)(O)O)[C@H]1OP(=O)(O)O` [5-InsP7, 5-diphosphoinositol 1,2,3,4,6-pentakisphosphate], the “X-ray crystal structure (soak)” value (AtPFA-DSP1^49–215; substrate-trapping mutant, displaces Pi) is reported as “it could now be successfully substituted by 5-InsP7”.
With `O=P(O)(O)O[C@@H]1[C@@H](OP(=O)(O)OP(=O)(O)O)[C@H](OP(=O)(O)O)[C@@H](OP(=O)(O)O)[C@@H](O)[C@H]1OP(=O)(O)O` [5-PP-InsP4, 5-diphosphoinositol 1,3,4,6-tetrakisphosphate] the “X-ray crystal structure (soak)” value (AtPFA-DSP1^49–215; beta-IN and beta-OUT poses, the latter together with Pi) was “instructive crystals of AtPFA-DSP1 in complex with 5-PP-InsP4”.
With `O=P(O)(O)O[C@H]1[C@@H](OP(=O)(O)O)[C@@H](OP(=O)(O)O)[C@H](OP(=O)(O)OP(=O)(O)O)[C@@H](OP(=O)(O)O)[C@@H]1OP(=O)(O)O` [6-InsP7, 6-diphosphoinositol 1,2,3,4,5-pentakisphosphate] the Km (AtPFA-DSP1 (full-length)) was “(c), 6-InsP7”.
